# Test system: Southern Armyworm (Spodoptera eridania), 2nd Instar Larvae
# Experiment: Southern armyworm leaf-dip test, 2nd instar larvae
# Assay type: in vivo
# Details: foliar, 120 h, observation at 5 days, read-out: mortality in comparison with untreated controls
# Description: 2.1 Southern Armyworm (Spodoptera eridania), 2nd Instar Larvae
# The active compounds were formulated for testing the activity against insects and arachnids as a 10.000 ppm solution in a mixture of 35% acetone and water, which was diluted with water, if needed.
# A Sieva lima bean leaf expanded to 78 cm in length is dipped in the test solution with agitation for 3 seconds and allowed to dry in a hood. The leaf is then placed in a 100×10 mm petri dish containing a damp filter paper on the bottom and ten 2nd instar caterpillars. At 5 days, observations are made of mortality, reduced feeding, or any interference with normal molting.
row,SMILES,mortality at 300 ppm [%]
1,O=C(NN=CC(Br)=Cc1ccccc1)c1ccccc1F [Compound 192],> 80
2,O=C(NN=CC(Cl)=Cc1ccccc1)c1cccnc1 [Compound 162],> 80
3,CC(C=NNC(=O)c1cccnc1)=Cc1ccccc1 [Compound 160],> 80
4,CC(C=NNC(=O)c1ccc(F)cc1F)=Cc1ccccc1 [Compound 318],> 80
5,COc1ccc(C(=O)NN=CC(C)=Cc2ccccc2)cc1OC [Compound 185],> 80
6,CC(C=NNC(=O)c1cccnc1)=Cc1cccc(C(F)(F)F)c1 [Compound 161],> 80
7,CC(C=NNC(=O)c1ccccc1F)=Cc1cccc(F)c1 [Compound 198],> 80
8,CC(C=NNC(=O)c1cnccn1)=Cc1ccccc1 [Compound 177],> 80
9,CC(C=NNC(=O)c1ccc(F)cc1)=Cc1ccccc1 [Compound 190],> 80
10,CC(C=NNC(=O)Cc1ccccc1)=Cc1ccccc1 [Compound 18],> 80
11,O=C(NN=CC(Cl)=Cc1ccccc1)c1ccc(Cl)s1 [Compound 97],> 80
12,CC(C=NNC(=O)c1cc(C(C)C)no1)=Cc1ccccc1 [Compound 238],> 80

# Test system: Cotton Aphid (aphis gossypii)
# Experiment: Cotton aphid test on cotton cotyledons
# Assay type: in vivo
# Details: 120 h, cotyledons dipped, after 5 days, read-out: mortality in comparison with untreated controls
# Source text: 2.2 Cotton Aphid (aphis gossypii)
# (§1) The active compounds were formulated in 50:50 acetone:water and 100 ppm Kinetic® surfactant.
# Cotton plants at the cotyledon stage (one plant per pot) were infested by placing a heavily infested leaf from the main colony on top of each cotyledon. The aphids were allowed to transfer to the host plant overnight, and the leaf used to transfer the aphids was removed. The cotyledons were dipped in the test solution and allowed to dry. After 5 days, mortality counts were made.
row,SMILES,mortality at 300 ppm [%]
1,CC(C=NNC(=O)c1cccs1)=Cc1ccc(F)cc1 [Compound 71],> 75
2,CCC(C=NNC(=O)c1ccccn1)=Cc1ccccc1F [Compound 392],> 75
3,CCC(C=NNC(=O)c1cccc(C)n1)=Cc1ccccc1F [Compound 394],> 75
4,O=C(NN=CC(Cl)=Cc1ccccc1)c1ccccn1 [Compound 157],> 75
5,CC(C=NNC(=O)c1ccccn1)=Cc1cccc(F)c1 [Compound 159],> 75
6,CC(C=NNC(=O)c1cc(F)ccc1F)=Cc1cccc(F)c1 [Compound 203],> 75
7,CC(C=NNC(=O)c1cc(F)ccc1F)=Cc1ccc(F)cc1 [Compound 202],> 75
8,CC(C=NNC(=O)c1c(F)cccc1F)=Cc1cccc(F)c1 [Compound 207],> 75
9,CC(C=NNC(=O)c1cc(C(C)C)on1)=Cc1ccc(F)cc1 [Compound 236],> 75
10,CCC(C=NNC(=O)c1cccc(C)n1)=Cc1cccc(F)c1F [Compound 395],> 75
11,CC(C=NNC(=O)c1ccccc1)=Cc1ccc(F)cc1 [Compound 181],> 75
12,CC(C=NNC(=O)c1ccc(F)cc1F)=Cc1ccc(F)cc1 [Compound 319],> 75
13,CC(C=NNC(=O)c1ncccc1F)=Cc1ccc(F)cc1 [Compound 399],> 75
14,CC(C=NNC(=O)c1ncccc1F)=Cc1ccccc1 [Compound 398],> 75
15,CC(C=NNC(=O)c1ccco1)=Cc1cccc(F)c1 [Compound 131],> 75
16,CC(C=NNC(=O)c1cc(Cl)ccn1)=Cc1cccc(F)c1 [Compound 277],> 75
17,CC(C=NNC(=O)c1cccs1)=Cc1cccc(F)c1 [Compound 70],> 75
18,CCC(C=NNC(=O)c1ccco1)=Cc1ccccc1 [Compound 126],> 75
19,CC(C=NNC(=O)c1ccco1)=Cc1ccccc1 [Compound 121],> 75
20,O=C(NN=CC(Cl)=Cc1ccccc1)c1ccco1 [Compound 120],> 75
21,CC(C=NNC(=O)c1cc(C(C)C)no1)=Cc1cccc(F)c1 [Compound 240],> 75
22,O=C(NN=CC=Cc1ccccc1F)c1ccco1 [Compound 130],> 75
23,CC(C=NNC(=O)c1ccccc1F)=Cc1ccccc1 [Compound 194],> 75
24,CC(C=NNC(=O)c1cnccn1)=Cc1ccccc1F [Compound 314],> 75

# Test system: Green Peach Aphid (Myzus persicae)
# Experiment: Green peach aphid test on pepper plants
# Assay type: in vivo
# Details: 120 h, leaves dipped, after 5 days, read-out: mortality in comparison with untreated controls
# Source text: 2.3 Green Peach Aphid (Myzus persicae)
# as §1
# Pepper plants in the 2nd leaf-pair stage (variety ‘California Wonder’) were infested with approximately 40 laboratory-reared aphids by placing infested leaf sections on top of the test plants. The leaf sections were removed after 24 hr. The leaves of the intact plants were dipped into gradient solutions of the test compound and allowed to dry.
# Test plants were maintained under fluorescent light (24 hour photoperiod) at about 25° C. and 20-40% relative humidity. Aphid mortality on the treated plants, relative to mortality on check plants, was determined after 5 days.
row,SMILES,mortality at 300 ppm [%]
1,CC(C=NNC(=O)Cc1ccccc1)=Cc1cccc(F)c1 [Compound 19],> 75
2,CC(C=NNC(=O)c1ccncc1)=Cc1cccc(F)c1 [Compound 173],> 75
3,CC(C=NNC(=O)c1sccc1C)=Cc1ccccc1 [Compound 76],> 75
4,CC(C=NNC(=O)c1cccc(Cl)n1)=Cc1cccc(F)c1 [Compound 397],> 75
5,CC(C=NNC(=O)c1ccccc1F)=Cc1cccc(F)c1 [Compound 198],> 75
6,CC(C=NNC(=O)c1ccco1)=Cc1ccc(Cl)cc1 [Compound 128],> 75
7,CC(C=NNC(=O)c1cccc(F)n1)=Cc1ccccc1 [Compound 400],> 75
8,CC(C=NNC(=O)c1ccc(F)cc1F)=Cc1ccccc1F [Compound 321],> 75
9,COc1ccccc1C(=O)NN=CC(C)=Cc1ccc(F)cc1 [Compound 186],> 75
10,O=C(NN=CC=Cc1ccccc1F)c1ccccc1F [Compound 197],> 75
11,O=C(NN=CC(Cl)=Cc1ccccc1)c1ccccc1F [Compound 195],> 75
12,CC(C=NNC(=O)c1cc(F)ccc1F)=Cc1ccccc1C [Compound 204],> 75
13,CC(C=NNC(=O)c1cc(C)nn1C)=Cc1ccccc1 [Compound 152],> 75
14,CC(C=NNC(=O)c1cc(C(C)C)on1)=Cc1cccc(F)c1 [Compound 237],> 75
15,CCC(C=NNC(=O)c1cccc(F)c1)=Cc1ccccc1 [Compound 200],> 75
16,CC(C=NNC(=O)c1cc(Cl)ccn1)=Cc1ccccc1F [Compound 278],> 75
17,CC(C=NNC(=O)c1ccccc1F)=Cc1ccccc1 [Compound 194],> 75
18,CC(C=NNC(=O)c1cc(C(C)C)on1)=Cc1ccccc1 [Compound 235],> 75
19,COc1ccc(CC(=O)NN=CC(C)=Cc2ccc(F)cc2)cc1OC [Compound 20],> 75
20,CCC(C=NNC(=O)c1ccccn1)=Cc1ccc(F)cc1 [Compound 393],> 75
21,CC(C=NNC(=O)c1ccc(F)cc1F)=Cc1cccc(F)c1 [Compound 320],> 75

# Test system: Bean Aphid (aphis fabae)
# Experiment: Bean aphid test on nasturtium plants
# Assay type: in vivo
# Details: 72 h, plant dipped, after 3 days, read-out: mortality in comparison with untreated controls
# Source text: 2.4 Bean Aphid (aphis fabae)
# as §1
# Nasturtium plants grown in Metro mix in the 1st leaf-pair stage (variety ‘Mixed Jewle’) were infested with approximately 2-30 laboratory-reared aphids by placing infested cut plants on top of the test plants. The cut plants were removed after 24 hr. Each plant was dipped into the test solution to provide complete coverage of the foliage, stem, protruding seed surface and surrounding cube surface and allowed to dry in the fume hood. The treated plants were kept at about 25° C. with continuous fluorescent light. Aphid mortality was determined after 3 days.
row,SMILES,mortality at 300 ppm [%]
1,CC(C=NNC(=O)c1cccs1)=Cc1ccc(F)cc1 [Compound 71],> 75
2,O=C(NN=CC(Cl)=Cc1ccccc1)c1ccccn1 [Compound 157],> 75
3,CC(C=NNC(=O)c1ccccn1)=Cc1cccc(F)c1 [Compound 159],> 75
4,CC(C=NNC(=O)c1cc(F)ccc1F)=Cc1ccc(F)cc1 [Compound 202],> 75
5,CC(C=NNC(=O)c1ccncc1)=Cc1ccccc1 [Compound 171],> 75
6,CC(C=NNC(=O)c1cnccc1C(F)(F)F)=Cc1ccc(F)cc1 [Compound 169],> 75
7,O=C(NN=CC(Cl)=Cc1ccccc1)c1ccncc1 [Compound 170],> 75
8,CC(C=NNC(=O)c1ccc(O)cc1)=Cc1ccc(F)cc1 [Compound 184],> 75
9,CC(C=NNC(=O)c1ccccn1)=Cc1cccc(C)c1 [Compound 253],> 75
10,CC(C=NNC(=O)c1ccc2ccccc2c1)=Cc1cccc(F)c1 [Compound 210],> 75
11,CC(C=NNC(=O)c1cnccc1C(F)(F)F)=Cc1ccccc1 [Compound 168],> 75
12,CC(C=NNC(=O)Cc1ccccc1)=Cc1ccccc1 [Compound 18],> 75
13,CC(C=NNC(=O)c1ccc(F)cc1)=Cc1ccc(F)cc1 [Compound 191],> 75
14,CCC(C=NNC(=O)c1ccco1)=Cc1ccccc1 [Compound 126],> 75
15,CC(C=NNC(=O)c1ccccc1F)=Cc1ccc(F)cc1 [Compound 199],> 75
16,O=C(NN=CC=Cc1ccccc1)c1ccccc1F [Compound 196],> 75
17,O=C(NN=CC(Cl)=Cc1ccccc1)c1cccs1 [Compound 69],> 75

# Source: patent publication US20070066627A1, “Hydrazone derivatives for combatting harmful insects and arachnids” (priority 2004, published 2007)
